Read-outs that look alike come from different tables or passages of the source. Bounds are passed on as bounds.

Data set [1] deals with human immunoproteasome (i20S) β2 (Homo sapiens, UniProt P40306+P49720). As to the kind of experiment: Proteasome subunit inhibition, i20S β2. It is filed as biochemical.
Data set [2] has as its target human immunoproteasome (i20S) β1 (Homo sapiens, UniProt P28065+P40306). Briefly: Proteasome subunit inhibition, i20S β1. It is filed as biochemical.
The test system of a further data set is SF188 cell line. As to the kind of experiment: Cytotoxicity against SF188 cells. It is filed as cell-based, human.
The nature of a further data set: in vitro. The conditions noted are these: mouse liver microsomes. (Microsomes from liver hold many membrane-bound enzymes, among them those of drug oxidation.)
Data set [3] has as its target human constitutive proteasome (c20S) β1 (Homo sapiens, UniProt P28072+Q99436). As to the kind of experiment: Proteasome subunit inhibition, c20S β1. It is filed as biochemical.
In the next data set the test system is D283-med cell line. As to the kind of experiment: Cytotoxicity against D283-med cells. Format: cell-based, human. The conditions noted are these: read-out: D283-med IC50.
The subject of a further data set is H460 cell line. As to the kind of experiment: Cytotoxicity against H460 cells. Format: cell-based.
Data set [4] can be described thus: PAMPA-BBB permeability assay. The settings on record: PAMPA-BBB. Background: PAMPA measures passive passage across an artificial lipid membrane.
Data set [5] in a line: Liver microsomal stability. The settings on record: mouse liver microsomes.
A short description of a further data set: Plasma stability. It is filed as in vitro ADME. The settings on record: for remaining at 2 h / remaining at 5 h: mouse, plasma, Plasma Stability % remaining; for Plasma Stability % remaining: mouse plasma.
Data set [6] concerns the target human immunoproteasome (i20S) β5 (Homo sapiens, UniProt P20618+P28062). As to the kind of experiment: Proteasome subunit inhibition, i20S β5. The conditions noted are these: read-out: i20S β5 IC50 ± SD; read 60 to 90 minutes after start. Format: biochemical.
The nature of data set [7]: Caco-2 cell permeability and efflux. Format: in vitro ADME, human. The conditions noted are these: human. A general note: Caco-2 cells form a polarised layer with tight junctions and transporters.
Data set [8] in a line: In vivo pharmacokinetics, plasma and brain. Also on record: species or system Male C57BL/6 mice. The settings on record: mice, 10 mg/kg i.v.
A further data set has as its system Caco-2 cells. Briefly: Caco-2 cell permeability and efflux. Format: in vitro ADME, human. The settings on record: for Efflux Ratio: Caco-2; for % Recovery (A-B): Caco-2, A-B direction; for % Recovery (B-A): Caco-2, B-A direction; for Pe (A-B): Caco-2, apical to basolateral; for Pe (B-A): Caco-2, basolateral to apical.
Setting [9] is: Homo sapiens, SF-188, read-out: SF188 IC50, glioblastoma cell line.
[10] abbreviates: read-out: SF188 IC50, glioblastoma cell line.
The mark [11] stands for this setting: read-out: H460 IC50, non-small cell lung cancer cell line.
Setting [12] is: read-out: i20S β2 IC50 ± SD, read 60 to 90 minutes after start.
Where [13] appears, read: read-out: i20S β1 IC50 ± SD, read 60 to 90 minutes after start.
Where [14] appears, read: pretreated with tariquidar, 0.5 h.

For orientation: IC50 means the concentration that gives 50% inhibition. For orientation: half-life means the time in which the quantity being followed falls by half. For orientation: Papp means the rate of passage across a membrane or cell layer, normalised by area and donor concentration. A lower Papp goes with poor permeation. A word on the share remaining: it is the share of the starting amount still present when the sample was taken. Consider `C[C@@]12OC(=O)[C@]1([C@@H](O)[C@@H]1C=CCCC1)NC(=O)[C@@H]2CCCl` [Marizomib, reference compound], for which the IC50 stood at 207 ± 22.3 nM in data set [1]; 40.5 ± 1.7 nM in data set [2]; 22 ± 4 nM in the data set with SF188 cell line (Homo sapiens, SF-188, read-out: SF188 IC50); 336 ± 27.2 nM in data set [3]; 70 ± 3 nM in the data set with D283-med cell line (Homo sapiens, D283 Med); 73 ± 6 nM with H460 cell line (Homo sapiens, NCI-H460, read-out: H460 IC50). The half-life in “in vitro” was < 5 min. In addition, the recovery in [4] (PAMPA, % Recovery) turned out to be 2%. Also, the Papp in data set [4] (PAMPA, Mean Permeability) was found to be 0.13 ×10⁻⁶ cm/s. Further, in data set [5], the “Microsomal Stability Clearance Category” value is on record as “High”. Further, the share remaining at 2 h in the data set “Plasma stability” (after 2 hr) turned out to be 20%.

Consider `CC(C)C[C@H](NC(=O)C(CSc1c(F)c(F)c(F)c(F)c1F)NC(=O)[C@@H](NC(=O)CCc1ccccc1)C(C)C)C(=O)[C@@]1(C)CO1` (stereo in doubt) [Compound 2, (S)-3-Methyl-N-((S)-1-(((S)-4-methyl-1-((R)-2-methyloxiran-2-yl)-1-oxopentan-2-yl)amino)-1-oxo-3-((perfluorophenyl)thio)propan-2-yl)-2-(3-phenylpropanamido)butanamide], for which the half-inhibitory concentration (IC50) in the data set with SF188 cell line (setting [9]) is < 200 nM; with SF188 cell line (setting [10]), 132 ± 22 nM; with H460 cell line (setting [11]), 632 ± 167 nM. Also, the half-life in the data set “in vitro” was < 5 min. Also, the “Microsomal Stability Clearance Category” value in [5] is recorded as “High”. Besides, the share remaining at 2 h in the data set “Plasma stability” (after 2 hr) is > 99%. In “Plasma stability” (after 5 hr), the amount remaining at 5 h is > 75%.

With `CC(C)C[C@H](NC(=O)[C@@H]1Cc2ccc(cc2)OCCCCCC(=O)N[C@@H](C(C)C)C(=O)N1)C(=O)[C@@]1(C)CO1` [Compound 33, (10S,13S)-10-Isopropyl-N-((S)-4-methyl-1-((R)-2-methyloxiran-2-yl)-1-oxopentan-2-yl)-8,11-dioxo-2-oxa-9,12-diaza-1(1,4)-benzenacyclotetradecaphane-13-carboxamide], the IC50 in data set [1] (setting [12]) was found to be 67.4 ± 8.4 nM; in [2] (setting [13]) it was 81.7 ± 8.6 nM; in the data set with SF188 cell line (setting [10]), 12.2 ± 0.4 nM; with D283-med cell line (medulloblastoma cell line), 10.1 ± 2.1 nM; with H460 cell line (setting [11]) it was 53 ± 15 nM; in data set [6], 32.9 ± 5.9 nM. The “% Recovery” value in data set [4] is 87%. Further, the “Mean Permeability” value in data set [4] is on record as 1.49 10^−6 cm/sec.

For orientation: Papp B→A means how fast a substance crosses the layer from the basolateral side. On to `CC(C)C[C@H](NC(=O)C(CSc1c(F)c(F)c(F)c(F)c1F)NC(=O)[C@@H](NC(=O)c1cc(Cl)ccc1Cl)C(C)C)C(=O)[C@@]1(C)CO1` (stereo in doubt) [Compound 4, 2,5-Dichloro-N-((S)-3-methyl-1-(((S)-1-(((S)-4-methyl-1-((R)-2-methyloxiran-2-yl)-1-oxopentan-2-yl)amino)-1-oxo-3-((perfluorophenyl)thio)propan-2-yl)amino)-1-oxobutan-2-yl)benzamide], for which the IC50 in the data set with SF188 cell line (setting [9]) was < 200 nM; in the data set with SF188 cell line (setting [10]), 192 ± 70 nM. Moreover, the half-life in “in vitro” is < 5 min. The compound also displayed a Papp B→A in data set [7] (Caco-2) of 1.3 ×10⁻⁶ cm/s. Besides, the recovery was 27% in data set [7] (Caco-2, % Recovery (A-B), Caco-2, A-B direction) and 42% in [7] (Caco-2, % Recovery (B-A), Caco-2, B-A direction). Also, in [5], the “Microsomal Stability Clearance Category” value is on record as “High”. For the same compound, the share remaining at 2 h in the data set “Plasma stability” (after 2 hr) was > 99%. In addition, the amount remaining at 5 h in the data set “Plasma stability” (after 5 hr) is > 75%.

`CC(C)C[C@H](NC(=O)[C@@H]1Cc2c(F)c(F)c(c(F)c2F)Sc2cccc(c2)CC(=O)N[C@@H]([C@@H](C)O)C(=O)N1)C(=O)[C@@]1(C)CO1` [Compound 14, (5S,8S)-3^2,3^3,3^5,3^6-Tetrafluoro-8-((R)-1-hydroxyethyl)-N-((S)-4-methyl-1-((R)-2-methyloxiran-2-yl)-1-oxopentan-2-yl)-7,10-dioxo-2-thia-6,9-diaza-1(1,3),3(1,4)-dibenzenacycloundecaphane-5-carboxamide]: the concentration for half-maximal inhibition (IC50) came out at 1060 ± 171 nM in data set [1] (setting [12]); 310 ± 39.5 nM in data set [2] (setting [13]); 40 ± 9 nM with SF188 cell line (setting [10]); 20 ± 1 nM in the data set on D283-med cell line (medulloblastoma cell line); 186 ± 52 nM in the data set with H460 cell line (setting [11]); 858 ± 342 nM in [6]. The “% Recovery” value in data set [4] came to 53%. The “Mean Permeability” value in data set [4] was 3.75 10^−6 cm/sec. The “Pe (effective permeability)” value in data set [4] is recorded as “around 4 10^−6 cm s^−1”. Also, the “Plasma Stability % remaining” value in the data set “Plasma stability” (after 5 hr) is listed as “more than 75%”.

With “S)-N-((S)-4-Methyl-1-((R)-2-methyloxiran-2-yl)-1-oxopentan-2-yl)-8,11-dioxo-2-oxa-9,12-diaza-1(1,4)-benzenacyclotetradecaphane-13-carboxamide [Compound 35]”, the IC50 in [1] (setting [12]) worked out at 1750 ± 240 nM; in data set [2] (setting [13]), 78.2 ± 5.3 nM; with SF188 cell line (setting [10]), 806 ± 388 nM; with D283-med cell line (medulloblastoma cell line), 332 ± 12 nM; in the data set with H460 cell line (setting [11]), 853 ± 90 nM; in [6] it was 1900 ± 587 nM. Also, the “Mean B/P ratio” value in data set [8] (alone, 1.0 h) is on record as 0.08; in data set [8] (setting [14]), 0.80. The “Mean Brain Con” value in [8] (alone, 1.0 h) is 26.3 ng/g; in data set [8] (alone, 2.0 h, LLOQ 2.00 ng/mL, 10 mg/kg), “below the quantification limit and BLQ”; in [8] (pretreated with tariquidar (13 mg/kg, i.p.), 0.5 h), 137.0 ng/g; in data set [8] (pretreated with tariquidar, 2.0 h, LLOQ 2.00 ng/mL), “below the quantification limit and BLQ”. The “Mean Plasma Conc.” value is 330 ng/mL in data set [8] (alone, 1.0 h); 5.3 ng/mL in data set [8] (alone, 2.0 h); 165.7 ng/mL in data set [8] (setting [14]); 5.0 ng/mL in data set [8] (pretreated with tariquidar, 2.0 h). The Brain concentration in data set [8] (compound by itself, 30 minutes) is given as 26 ng/mL; in data set [8] (tariquidar group, 30 minutes) it was 137 ng/mL. The Brain-to-plasma ratio in data set [8] (compound by itself, 30 minutes) came out at 0.08. Also, in data set [8] (with and without tariquidar), the “Plasma Cmax (average)” value was 2453 ng/mL. The Plasma half-life in data set [8] (with and without tariquidar) is reported as ~ 0.25 hours. In addition, the “Efflux Ratio” value in the data set on Caco-2 cells is recorded as 2.5. Moreover, in the data set on Caco-2 cells, the “% Recovery (A-B)” value was 98%. Moreover, the “% Recovery (B-A)” value with Caco-2 cells turned out to be 93%. For the same compound, the “Pe (A-B)” value in the data set with Caco-2 cells is given as 18.6 10^−6 cm/sec. Further, the “Pe (B-A)” value in the data set with Caco-2 cells is listed as 46.5 10^−6 cm/sec. For the same compound, the “% Recovery” value in [4] is listed as 100%. Moreover, the “Mean Permeability” value in data set [4] is on record as 6.81 10^−6 cm/sec. In addition, the “Pe (effective permeability)” value in data set [4] is listed as 6.8 10^−6 cm s^−1. Moreover, the “Microsomal Stability Clearance Category” value in [5] is reported as “Low”. Besides, in data set [5], the “Microsomal Stability mCLint” value was determined as 10 µL/min/mg. The “Plasma Stability % remaining” value in “Plasma stability” (after 2 hr) was 64 after 2 hr %; in “Plasma stability” (after 5 hr) it was “more than 75%”.

Turning to `CC(C)C[C@H](NC(=O)[C@@H]1CSCCCCCCCCCC(=O)N[C@@H](C(C)C)C(=O)N1)C(=O)[C@@]1(C)CO1` [Compound 39], the IC50 in data set [1] (setting [12]) amounted to 45.3 ± 3.1 nM. Further, the IC50 in data set [2] (setting [13]) was found to be 99 ± 8.4 nM. The IC50 in the data set with SF188 cell line (setting [10]) is 20 ± 3 nM. Further, in the data set with Caco-2 cells, the “Efflux Ratio” value is 1.5, the “% Recovery (A-B)” value worked out at 67%, the “% Recovery (B-A)” value stood at 74% and the “Pe (A-B)” value is recorded as 9.8 10^−6 cm/sec. In addition, the “Pe (B-A)” value with Caco-2 cells is 14.6 10^−6 cm/sec. Also, the IC50 with D283-med cell line (medulloblastoma cell line) was found to be 14.8 ± 2.3 nM. Also, the IC50 in the data set on H460 cell line (setting [11]) amounted to 79 ± 21 nM. Also, in [4], the “% Recovery” value is on record as 44%, the “Mean Permeability” value is given as 3.43 10^−6 cm/sec and the “Pe (effective permeability)” value was “around 4 10^−6 cm s^−1”. In addition, in [5], the “Microsomal Stability Clearance Category” value was “Medium”, the “Microsomal Stability mCLint” value was determined as 33 µL/min/mg and the “Microsomal Stability t1/2” value is 42 min. Further, the “Plasma Stability % remaining” value in the data set “Plasma stability” (after 2 hr) is reported as 87 after 2 hr %. The “Plasma Stability % remaining” value in “Plasma stability” (after 5 hr) is “more than 75%”. In data set [6], the IC50 was 63.9 ± 7.2 nM.

These data come from PMC13626384 (Journal of medicinal chemistry, 2025).
